Among the data in US10227329B2, “Compounds useful for treating disorders related to RET” (BLUEPRINT MEDICINES CORPORATION, priority 2016, dated 2019) are IC50 values, retold here.

SMILES strings stand for the structures. A value given as a limit tells only on which side of the number the result lay.

For one assay, the target named is RET V804L (Homo sapiens (Human), UniProt P07949, V804L). The experiment in a line: RET V804L Gatekeeper Mutant Assay at KM (Caliper electrophoretic mobility shift). Particulars: 10 μM ATP (KM), read-out: V480L Mutant. The class given is biochemical.
For another assay, the target named is wild type RET (Homo sapiens (Human), UniProt P07949). The experiment in a line: RET Wild Type Assay at KM (Caliper electrophoretic mobility shift). The class given is biochemical. Particulars: 25 μM ATP (KM).
Sequence of wild type RET (P07949 29-1114): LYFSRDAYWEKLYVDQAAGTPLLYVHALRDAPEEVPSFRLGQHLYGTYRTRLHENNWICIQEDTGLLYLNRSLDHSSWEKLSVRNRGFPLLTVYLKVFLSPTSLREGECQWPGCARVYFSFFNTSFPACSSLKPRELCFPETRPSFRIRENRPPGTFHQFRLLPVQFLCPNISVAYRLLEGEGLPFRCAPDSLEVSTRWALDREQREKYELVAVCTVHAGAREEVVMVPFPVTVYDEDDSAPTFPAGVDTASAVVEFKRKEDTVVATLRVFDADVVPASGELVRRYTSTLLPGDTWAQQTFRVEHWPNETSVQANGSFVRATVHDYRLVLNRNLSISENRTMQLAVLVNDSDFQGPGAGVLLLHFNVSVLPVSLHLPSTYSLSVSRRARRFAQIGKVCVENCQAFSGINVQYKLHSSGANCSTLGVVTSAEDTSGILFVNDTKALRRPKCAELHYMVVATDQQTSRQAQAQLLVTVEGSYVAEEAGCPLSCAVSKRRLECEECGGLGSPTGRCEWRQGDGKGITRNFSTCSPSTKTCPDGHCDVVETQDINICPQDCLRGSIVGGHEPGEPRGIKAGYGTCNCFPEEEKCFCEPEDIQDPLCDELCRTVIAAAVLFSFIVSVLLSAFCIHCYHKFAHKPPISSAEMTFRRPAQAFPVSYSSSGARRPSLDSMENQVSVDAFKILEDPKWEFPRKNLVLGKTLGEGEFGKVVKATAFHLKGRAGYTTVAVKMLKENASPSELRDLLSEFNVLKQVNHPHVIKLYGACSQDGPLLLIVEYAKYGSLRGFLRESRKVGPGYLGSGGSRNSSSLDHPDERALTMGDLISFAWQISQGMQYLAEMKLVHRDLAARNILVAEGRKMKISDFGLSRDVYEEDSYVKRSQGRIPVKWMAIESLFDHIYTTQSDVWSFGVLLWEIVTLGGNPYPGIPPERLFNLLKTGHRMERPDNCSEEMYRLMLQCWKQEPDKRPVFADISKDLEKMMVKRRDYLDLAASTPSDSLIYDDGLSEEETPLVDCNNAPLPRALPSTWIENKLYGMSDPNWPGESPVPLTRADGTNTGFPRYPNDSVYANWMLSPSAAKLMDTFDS

Sequence of RET V804L (P07949 29-1114 V804L): as the sequence (P07949 29-1114) above, with V776L counted along it

Take `COC1(C(=O)N(C)Cc2ccc(-n3cccn3)nc2)CCN(c2nc(C)cc(Nc3cc(C)[nH]n3)n2)CC1` [Compound 185]: the IC50 on RET V804L and on wild type RET was below 10 nM throughout.

Turning to `Cc1cc(Nc2cc(C)[nH]n2)nc(N2CC[C@@H](C(=O)NCc3ccc(-n4cccn4)nc3)[C@H](O)C2)c1` [Compound 133], the IC50 at RET V804L and at wild type RET was below 10 nM in each case.

As for `COc1ccc([C@H](C)NC(=O)C2(OC)CCN(c3nc(C)cc(Nc4cc(C)[nH]n4)n3)CC2)cc1` [Compound 123], the IC50 at RET V804L and on wild type RET was 10 to 100 nM in each case.

Turning to `Cc1cc(Nc2cc(C)[nH]n2)nc(N2CC(O)(C(=O)NCc3ccc(-n4cccn4)nc3)C2)c1` [Compound 110], the IC50 on RET V804L is below 10 nM; at wild type RET, 10 to 100 nM.

For `COC1(C(=O)NCc2ccc(-n3cc(F)cn3)nc2)CN(c2cc(C(F)F)cc(Nc3cc(C)[nH]n3)n2)C1` [Compound 208], the IC50 at RET V804L and on wild type RET was below 10 nM throughout.

For the molecule `Cc1cc(Nc2cc(C)[nH]n2)nc(N2CCC(O)(C(=O)N[C@@H](C)c3ccc(-n4cc(F)cn4)nc3)CC2)c1` [Compound 192], the IC50 at RET V804L and at wild type RET was below 10 nM in each case.

With `CCOC1(C(=O)N[C@@H](C)c2ccc(-n3cc(F)cn3)nc2)CN(c2nc(C)cc(Nc3cc(C)[nH]n3)n2)C1` [Compound 197], the IC50 on RET V804L and on wild type RET was below 10 nM in each case.

Turning to `COc1ccc(CNC(=O)C2(O)CCN(c3nc(C)cc(Nc4cc(C)[nH]n4)n3)CC2)cc1` [Compound 106], the IC50 on RET V804L is 10 to 100 nM; on wild type RET it was above 100 nM.

With `Cc1cc(Nc2cc(C)[nH]n2)nc(N2CCC(CO)(C(=O)N[C@@H](C)c3ccc(-n4cc(F)cn4)nc3)CC2)n1` [Compound 219], the IC50 at RET V804L and on wild type RET was below 10 nM each time.

Consider `Cc1cc(Nc2cc(C)[nH]n2)nc(N2CCC(C)(C(=O)N[C@@H](C)c3ccc(-n4cc(F)cn4)nc3)CC2)c1` [Compound 188], for which the IC50 at RET V804L and at wild type RET was below 10 nM throughout.

In the case of `Cc1cc(Nc2cc(C(F)F)cc(N3CC(F)(C(=O)NCc4cnc(-n5cc(F)cn5)cn4)C3)n2)n[nH]1` [Compound 183], the IC50 on RET V804L and on wild type RET was below 10 nM in each case.

`COC1(C(=O)NCc2ccc(-n3cc(F)cn3)nc2)CCN(c2cc(C)cc(Nc3cc(C)[nH]n3)n2)CC1` [Compound 193]: the IC50 on RET V804L and on wild type RET was below 10 nM in each case.

`COC1(C(=O)N[C@@H]2CCN(c3ccccn3)C2)CCN(c2nc(C)cc(Nc3cc(C)[nH]n3)n2)CC1` [Compound 147]: the IC50 on RET V804L and on wild type RET was 10 to 100 nM in each case.

Take `Cc1cc(Nc2cc(C)[nH]n2)nc(N2CCC(O)(C(=O)NCc3ccc(-n4cccn4)nc3)CC2)c1` [Compound 131]: the IC50 at RET V804L and on wild type RET was below 10 nM in each case.

Take `COc1ccc([C@H](C)NC(=O)C2(O)CCN(c3cc(C)cc(Nc4cc(C)[nH]n4)n3)CC2)cc1` [Compound 114]: the IC50 at RET V804L and on wild type RET was 10 to 100 nM throughout.

Take `Cc1cc(Nc2cc(C)[nH]n2)nc(N2CC(C#N)(C(=O)N[C@@H](C)c3ccc(-n4cc(F)cn4)nc3)C2)n1` [Compound 159]: the IC50 at RET V804L and at wild type RET was below 10 nM in each case.

On to `Cc1cc(Nc2cc(C)[nH]n2)nc(N2CCC(C)(C(=O)NCc3ccccc3)CC2)n1` [Compound 101], for which the IC50 at RET V804L and on wild type RET was 10 to 100 nM each time.

Take `CCC1(C(=O)NCc2ccc(-n3nc(C)cc3C)nc2)CCN(c2nc(C)cc(Nc3cc(C)[nH]n3)n2)CC1` [Compound 209]: the IC50 on RET V804L and at wild type RET was below 10 nM in each case.

As to `COC1(C(=O)NCc2ccc(N3CC[C@H](F)C3)nc2)CN(c2nc(C)cc(Nc3cc(C)[nH]n3)n2)C1` [Compound 154], the IC50 on RET V804L and at wild type RET was above 100 nM in each case.

On to `Cc1cc(Nc2cc(C)[nH]n2)nc(N2CC(C)(C(=O)N[C@@H](C)c3ccc(-n4cc(F)cn4)nc3)C2)c1` [Compound 139], for which the IC50 on RET V804L and on wild type RET was below 10 nM in each case.

As to `COC1(C(=O)NCc2ccc(-n3ccc(C4CC4)n3)nc2)CN(c2nc(C)cc(Nc3cc(C)[nH]n3)n2)C1` [Compound 179], the IC50 on RET V804L and on wild type RET was below 10 nM in each case.

Take `COC1(C(=O)N[C@@H](C)c2ccc(-n3cc(F)cn3)nc2)CCN(c2nccc(Nc3cc(C)[nH]n3)n2)CC1` [Compound 196]: the IC50 on RET V804L and on wild type RET was below 10 nM in each case.

`Cc1cc(Nc2cc(C3CC3)[nH]n2)nc(N2CCC(C)(C(=O)N[C@@H](C)c3ccc(-n4cc(F)cn4)nc3)CC2)c1` [Compound 225]: the IC50 on RET V804L and at wild type RET was below 10 nM each time.

Consider `Cc1cc(Nc2cc(C)[nH]n2)nc(N2CC(F)(C(=O)N[C@@H](C)c3ccc(-n4cc(F)cn4)nc3)C2)n1` [Compound 153], for which the IC50 at RET V804L and on wild type RET was below 10 nM each time.

`COC1(C(=O)NCc2ccc(-n3cc(Cl)cn3)nc2)CN(c2nc(C)cc(Nc3cc(C)[nH]n3)n2)C1` [Compound 172]: the IC50 on RET V804L and at wild type RET was below 10 nM in each case.

For `COC1(C(=O)NCc2ccc(-n3cc(F)cn3)nc2)CN(c2nc(Nc3cc(C)[nH]n3)cc(C)c2F)C1` [Compound 174], the IC50 at RET V804L and on wild type RET was below 10 nM throughout.

Take `Cc1cc(Nc2cc(C)[nH]n2)nc(N2C[C@H](C(=O)N[C@@H](C)c3ccc(-n4cc(F)cn4)nc3)[C@H]2C)n1` [Compound 144]: the IC50 at RET V804L and on wild type RET was below 10 nM in each case.

As to `Cc1cc(Nc2cc(C)[nH]n2)nc(N2CCC(O)(C(=O)N(C)Cc3ccc(-n4cccn4)nc3)CC2)n1` [Compound 162], the IC50 at RET V804L and at wild type RET was below 10 nM in each case.

As for `Cc1cc(Nc2cc(C)[nH]n2)nc(N2CCC(C(=O)NCc3ccccc3)CC2)n1` [Compound 100], the results for the IC50 on RET V804L and at wild type RET were 10 to 100 nM and above 100 nM, respectively.

Take `Cc1cc(Nc2cc(C)c(C#N)c(N3CC(F)(C(=O)NCc4ccc(-n5cc(F)cn5)nc4)C3)n2)n[nH]1` [Compound 165]: the IC50 at RET V804L and on wild type RET was below 10 nM throughout.

On to `Cc1cc(Nc2cc(C)c(C#N)c(N3CC(F)(C(=O)NCc4ccc(-n5cccn5)nc4)C3)n2)n[nH]1` [Compound 128], for which the IC50 at RET V804L and on wild type RET was below 10 nM in each case.

On to `COC1(C(=O)N[C@@H](C)c2ccc(-n3cc(F)cn3)nc2)CCN(c2cc(C)nc(Nc3cc(C)[nH]n3)n2)CC1` [Compound 220], for which the IC50 at RET V804L and at wild type RET was below 10 nM each time.

For `Cc1cc(Nc2cc(C)c(F)c(N3CC(C(=O)N(C)[C@@H](C)c4ccc(-n5cc(F)cn5)nc4)C3)n2)n[nH]1` [Compound 171], the IC50 on RET V804L and at wild type RET was below 10 nM throughout.

On to `Cc1cc(Nc2cc(C)[nH]n2)nc(N2CCC(CO)(C(=O)N[C@@H](C)c3ccc(-n4cc(F)cn4)nc3)CC2)c1` [Compound 217], for which the IC50 on RET V804L and on wild type RET was below 10 nM in each case.
